Reference: patent EP0603240B1, “SAFENING HERBICIDAL PYRAZOLYLSULFONYLUREAS” (priority 1991, dated 1993)

Experiments:
Assay type in all cases: in vivo
[1] = system: corn; assay: Example 6, Procedure II: Herbicide No. 1 + alachlor (No. 7) with antidotes; settings: Herbicides 1 and 7 applied PPI, Table 6
Description: (§1) Containers were filled and compacted with a fumigated silt loam top soil to a depth of about 1.3 cm from the top of the container. A first container was designated as an untreated control, a second container was designated as a herbicide control, and a third container was designated as a herbicide + antidote test container. Each of the containers was seeded with a crop species. A measured amount of herbicide dispersed or dissolved in acetone was applied to a measured quantity of soil. To this same quantity of soil treated with herbicide, there was added a measured amount of antidote dispersed or dissolved in acetone. The quantity of soil treated with the herbicide and antidote was thoroughly mixed to incorporate the herbicide and antidote in the soil uniformly. The seed bed in the third container of soil was covered with the soil treated with the herbicide and antidote and the container was leveled. For each test series, the seed beds of the first and second containers were likewise covered by soil layers. the cover layer of the first container was not treated with herbicide or antidote.
(§2) The containers were then placed on a bench in a greenhouse and sub-irrigated as required for the duration of the test. […] Plant response is measured in terms of percent injury. Antidote efficacy is indicated as the difference in plant injury by the herbicide(s) without the antidote and with the antidote.
(§3) This procedure is the same as Procedure I, but modified in the manner that after incorporation of the chemicals (herbicide and antidote) the containers with the covered seedbed were treated with an initial overhead irrigation equivalent to 0.6 cm rainfall, then subsequently sub-irrigated as required on greenhouse benches.
This example was designed to investigate the antidotal efficacy of a plurality of antidotal compounds against a composition comprising Herbicide No. 1 in combination with Herbicide No. 7 (alachlor). The antidotal compounds used herein were Nos. 1, 2, 7, 13 and 15.
In this example, Procedure II described above was followed. The data from the tests in this example is shown in Table 6 and represents averages of duplicate replications.

[2] = system: corn; assay: Example 12, Procedure II: Herbicide No. 1 + acetochlor (No. 6) with thirteen antidotes; settings: Herbicide No. 1:Herbicide 6:Antidote 0.14:2.24:2.24 kg/ha
Description: as §1, §2, §3
This example was designed to investigate the efficacy of thirteen different antidotes from different classes of chemistry as safeners against compositions of Herbicide No. 1 and acetochlor (Herbicide No. 6) as co-herbicide. Acetochlor is the active ingredient in the commercial herbicides GUARDIAN® and WENNER®.
The test procedure used in this example was Procedure II described above.

[3] = system: corn; assay: Example 15, Procedure II: Herbicide No. 1 + butylate (No. 10) with antidotes
Description: as §1, §2, §3
This example describes experiments designed to investigate the antidotal efficacy of a plurality of antidotes against the herbicidal action of a combination of Herbicide No. 1 and butylate in corn and the prevalent weeds barnyardgrass and velvetleaf. The antidotes used in these experiments were Nos. 1-10, 12, 13 and 15.
The test procedure used in these experiments was that of Procedure II described above. The antidotes were applied to a soil cover layer by pipet after spraying the herbicides onto the soil, followed by incorporation and overhead irrigation.

[4] = system: corn; assay: Example 19, Procedure II: Herbicide No. 1 + ERADICANE EXTRA with added antidotes; settings: Herbicide No. 1 + ERADICANE EXTRA, Table 19
Description: as §1, §2, §3
In the test reported in this example, the herbicidal composition was similar to that used in Example 16 in that Herbicide No. 1 was combined with EPTC (Herbicide No. 4) as a co-herbicide and the antidotes included Nos. 1, 2, 7, 13 and 15. However, in this test the EPTC was introduced as a formulation of ERADICANE (EPTC + the antidote R-25788, i.e., Antidote No. 1) at an application rate of 8.96 kg/ha. Thus, in this test two antidotes were present, viz. R-25788 and one of the auxilliary antidotes, No. 2, 13 and 15.
The test reported in this example was performed in the same manner and with the same antidotes used in Example 18, the only difference being the substitution of the commercial herbicidal product ERADICANE® EXTRA for ERADICANE®. ERADICANE EXTRA is a formulation containing both an antidote, i.e., R-29148 (Antidote No. 5 herein), and an extender, dietholate.

[5] = system: corn; assay: Example 13, Procedure II: Herbicide No. 1 + acetochlor (No. 6) with dichloroacetamide antidotes
Description: as §1, §2, §3
In this example a plurality of dichloroacetamide antidotes were tested for their safening efficacy against a herbicidal composition comprising Herbicide No. 1 and a co-herbicide, acetochlor (Herbicide No. 6) in corn in the presence of velvetleaf. The procedure used in this example was Procedure II above.

[6] = system: corn; assay: Example 10, Procedure II: Herbicide No. 1 + propachlor (No. 5) with antidotes; settings: Herbicide No.5 4.48 kg/ha alone, no antidote
Description: as §1, §2, §3
(§4) In this test, the safening effect of various antidotes on the herbicidal combination of Herbicide No. 1 and another α-chloroacetanilide co-herbicide, propachlor, (Herbicide No. 5) was investigated. Propachlor is the active ingredient in the commercial herbicide RAMROD®. Procedure II was also used in this test as in the preceding example.

[7] = system: barnyardgrass (Echinochloa crusgalli); assay: as above; settings: Herbicide No.5 4.48 kg/ha alone, no antidote
Description: as §1, §2, §3
(§5) In the series of greenhouse tests described below, for routine screening purposes the herbicide/antidote compositions were tested in crop/weed combinations involving corn as the crop and either or both of the weeds barnyardgrass (Echinochloa crusgalli), a monocotyledonous weed, and velvetleaf (Abutilon theophrasti), a dicotyledonous weed. In the tables below, these weeds are indicated by the symbols "BYG" and "VL", respectively.
as §4

[8] = system: velvetleaf (Abutilon theophrasti); assay: as above; settings: Herbicide No.5 4.48 kg/ha alone, no antidote
Description: as §1, §2, §3, §5, §4

[9] = system: corn; assay: Example 9, Procedure II: Herbicide No. 1 + pretilachlor (No. 13) with antidotes; settings: Herbicide No.13 2.24 kg/ha alone, no antidote
Description: as §1, §2, §3
(§6) In this example the safening effect on a composition comprising Herbicide No. 1 and another leading rice herbicide, i.e., Herbicide No. 13, was investigated using the same antidotes and test procedure described in the preceding example. Herbicide No. 13 is pretilachlor, active ingredient used in the commercial rice herbicides RIFIT®, SOFIT® and SOFIT® SUPER.

[10] = system: barnyardgrass (Echinochloa crusgalli); assay: as above; settings: Herbicide No.13 2.24 kg/ha alone, no antidote
Description: as §1, §2, §3, §5, §6

[11] = system: velvetleaf (Abutilon theophrasti); assay: as above; settings: Herbicide No.13 2.24 kg/ha alone, no antidote
Description: as §1, §2, §3, §5, §6

[12] = system: corn; assay: Example 11, Procedure II: Herbicide No. 1 + metazachlor (No. 14) with antidotes; settings: Herbicide No.14 3.36 kg/ha alone, no antidote
Description: as §1, §2, §3
(§7) In this example, yet another α-chloroacetanilide co-herbicide, metazachlor (Herbicide No. 14) was combined with Herbicide No. 1 for investigation of the effect of various safeners on that composition. Metazachlor is the active ingredient in the commercial herbicide BUTISAN® S, used here as a 500 g/L formulation.

[13] = system: barnyardgrass (Echinochloa crusgalli); assay: as above; settings: Herbicide No.14 3.36 kg/ha alone, no antidote
Description: as §1, §2, §3, §5, §7

[14] = system: velvetleaf (Abutilon theophrasti); assay: as above; settings: Herbicide No.14 3.36 kg/ha alone, no antidote
Description: as §1, §2, §3, §5, §7

## CC1(C(Cl)Cl)OCCO1 [Antidote No. 13, 1,3-Dioxolane, 2-(dichloromethyl)-2-methyl-]
[1]
  safening of corn, assessment in words: best safening effect across four treatments
[2]
  safening of corn, assessment in words: performed at commercial levels
[3]; Herbicide No. 1 1.12 and 0.56 kg/ha + Herbicide No. 10 6.72 kg/ha PPI, Table 15
  safening of corn, assessment in words: best safening effect at the highest rate
[4]
  safening of corn, assessment in words: most efficacious antidote across all four treatments

## CC1(C)CN2C(=O)CCC2(C)N(C(=O)C(Cl)Cl)C1 (stereo not shown) [Antidote No. 14, 5-Dichloroacetyl-3,3,6-trimethyl-9-oxo-1,5-diazabicyclo[4.3.0]nonane]
[5]; Herbicide Nos. 1 and 6, Table 13
  safening of corn, assessment in words: Commercial-level safening was exhibited at all rates and combinations

## CC(C)N(C(=O)CCl)c1ccccc1 [Herbicide No.5]
[6]
  % Injury Corn: 0%
[7]
  % Injury BYG: 100%
[8]
  % Injury VL: 15%

## CCSC(=O)N(CC(C)C)CC(C)C [Herbicide No.10]
[3]; in vivo
  % Injury Corn: 5%

## CCCOCCN(C(=O)CCl)c1c(CC)cccc1CC [Herbicide No.13]
[9]
  % Injury Corn: 0%
[10]
  % Injury BYG: 100%
[11]
  % Injury VL: 5%

## Cc1cccc(C)c1N(Cn1cccn1)C(=O)CCl [Herbicide No.14]
[12]
  % Injury Corn: 85%
[13]
  % Injury BYG: 100%
[14]
  % Injury VL: 65%

## CC1(C)CN2C(=O)CCC2(C)N(C(=O)C(Cl)Cl)C1 (stereo not shown) [compound 14]
[5]; in vivo
  % Injury Corn: 5%
